From patent publication EP0805678B1, “SURFACE-MODIFIED NANOPARTICLES AND METHOD OF MAKING AND USING SAME” (THE BOARD OF REGENTS acting for and on behalf of THE …, priority 1995, dated 1996) come the findings set out here.

One series relates to coronary artery. Kind of series: in vivo retention of nanoparticles in porcine coronary artery. Set-up: species or system pigs. As to conditions: after local delivery of U86-loaded nanoparticles; about 45 µg nanoparticles per 1 cm LAD. Here is the method:
In addition to the in vivo studies with rats, the nanoparticles were tested on pigs, weighing between about 30-40 lbs. In each subject pig, the elastic lamina of the coronary artery was ruptured by over inflation of a balloon tip catheter. A nanoparticle suspension (2.5 to 10 mg/ml in normal saline) was infused at the location of the injury by a Wolinksy (28 or 96 hole) or D-3 balloon catheter (Sci-Med, Minneapolis, MN) at 1-3 atmosphere pressure over 1 to 5 minutes. After 2-6 hours, the coronary arteries were harvested and quantitated for drug levels to calculate nanoparticle retention. U86 loaded-PLGA nanoparticles (15% w/w) with 5% DMAB surface modification and a particle size between 100-149 nm were suspended in normal saline at a concentration 15 or 30 mg/ml. The nanoparticles (NP) were administered to pigs which were sacrificed at 30 minutes or after one hour.

For series [1], the system named is ADP-induced platelet aggregation. Kind of series: in vitro platelet aggregometry. It is filed as cell-based, pig. As to conditions: platelet rich plasma at 37° C, effects monitored after 1 minute. Here is the method:
Using standard in vitro platelet aggregometry techniques, a dose-response curve was first developed with free ciprostene to determined its inhibitory potency against standard ADP-induced platelet aggregation. […] Concentrations of PLGA nanoparticles ranging from 0.3 to 30 µg/ml (actual ciprostene concentration of 0.06 to 6 µg/ml due to 20% drug loading) were added to platelet rich plasma samples heated to 37° C. The platelet inhibitory effects were monitored after 1 minute. The IC50 for the polymer-incorporated ciprostene was 0.59 µg/ml. Non-drug containing PLGA nanoparticles, as controls, had no obvious effects on the aggregation profile of pig platelets to the agonist ADP.

As to `O=c1cc(N2CCOCC2)oc2c(OCc3cccnc3)cccc12` [Sample U86, U-86983], the “net U86 in 1 cm of treated artery” value in the series on coronary artery is listed as “about 7 µg”. For the compound `CCCCC[C@H](O)/C=C/[C@H]1[C@H](O)C[C@]2(C)C/C(=C\CCCC(=O)O)C[C@H]12` [free ciprostene, ciprostene], in series [1], the IC50 entry was “roughly 0.28 µg/ml”.
